Data on 26 molecules can be found in patent publication US12221406B2, “Compounds as NLRP3 inflammasome inhibitors and compositions and uses thereof” (VIRGINIA COMMONWEALTH UNIVERSITY, priority 2019, dated 2025).

Molecules are shown by their SMILES. pIC50: −log10 of the molar value. A value given as a limit tells only on which side of the number the result lay.

In one data set the target is T1, NLRC4 inflammasome (Mus musculus, UniProt Q3UP24).
T1 construct: endogenous in cells; host or cells: J774A.1 murine macrophage cell line (LPS + transfected flagellin)
Briefly: NLRC4 inflammasome assay in J774A.1 cells (LPS/flagellin, IL-1β ELISA). The format is cell-based, murine. Conditions: compound 10 μM. On the procedure: (§1) J774A.1 cells were plated into a 96-well plate. […] Cells were treated with LPS (1 μg/mL) and test compounds for 1 h. Flagellin or poly-deoxyadenylic-deoxythymidylic acid sodium salt (Poly(dA:dT)) was used to induce the formation of the NLRC4 and the AIM2 inflammasomes.
Background: An ELISA detects its analyte on a solid surface through an enzyme-linked reagent.

In a further data set the target is T2, AIM2 inflammasome (Mus musculus, UniProt Q91VJ1).
T2 construct: endogenous in cells; host or cells: J774A.1 murine macrophage cell line (LPS + Poly(dA:dT))
T2 sequence (Q91VJ1 1-354): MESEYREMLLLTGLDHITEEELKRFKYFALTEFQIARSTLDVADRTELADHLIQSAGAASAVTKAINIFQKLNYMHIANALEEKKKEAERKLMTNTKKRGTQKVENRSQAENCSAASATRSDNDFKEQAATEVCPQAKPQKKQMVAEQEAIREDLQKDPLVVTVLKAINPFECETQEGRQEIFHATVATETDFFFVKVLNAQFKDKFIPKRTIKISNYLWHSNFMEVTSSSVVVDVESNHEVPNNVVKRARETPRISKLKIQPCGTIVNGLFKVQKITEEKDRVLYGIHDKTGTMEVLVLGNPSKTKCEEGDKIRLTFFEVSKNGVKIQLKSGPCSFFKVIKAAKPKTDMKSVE
Nature of the data set: AIM2 inflammasome assay in J774A.1 cells (LPS/Poly(dA:dT), IL-1β ELISA). The class given is cell-based, murine. Conditions: compound 10 μM. Here is the method: as §1

The next data set deals with EAE. Nature of the data set: EAE development in MOG-immunized mice. The format is in vivo, C57BL/6 mice. Conditions: from disease onset, to day 35. An excerpt:
C57BL/6 mice (n=10) were immunized subcutaneously in the dorsal flanks with MOG35-55 peptide emulsified in CFA on day 0. […] To assess the therapeutic effect in clinically relevant setting, treatment was started on disease onset (reduced tail tone, clinical score=1). Control mice received DMSO.

In data set [1] the target is T3, NLRP3 inflammasome (Mus musculus, UniProt Q8R4B8). Briefly: IL-1β release from mouse peritoneal macrophages upon LPS/ATP challenge (ELISA). Further details: endogenous in cells; host or cells: thioglycolate-elicited peritoneal macrophages from C57BL/6 mice. The format is cell-based. On the procedure:
Next, test compounds were added for 30 min. […] Primary peritoneal macrophages were similarly treated as described with J774A.1 cell line followed by ELISA analysis for IL-β production.
C57BL/6 mice were injected with 1 mL of 3% thioglycolate into the peritoneal cavity. Peritoneal cells were collected 3 days after injection by flushing the peritoneal cavity with cold PBS. The peritoneal cells were plated in complete RPMI1640 media containing 10% FBS, 100 U/mL penicillin, 100 μg/mL streptomycin. Floating cells were removed after 2 h and adherent peritoneal macrophages were used for experiments as described above.

A further data set relates to hCMEC/D3 cells. Nature of the data set: Cytotoxicity on hCMEC/D3 cells (Live/Dead kit). The class given is cell-based, human. Conditions: 20 μM, 2 h.
A short description of data set [2]: In vivo BBB penetration in mice, plasma and brain by LC-MS/MS. Further details: species or system C57BL/6 mice. The following applies: PO 20 mg/kg. On the procedure: (§2) […]. […] […]. Plasma samples ([…]) were collected at 0.08, 0.17, 0.25, 0.5, 0.75, 1.0, 2.0, 4.0, 8.0, 12.0, and 24.0 h time points through orbital vein and were stored in −80° C. freezer for later analysis.
(§3) Samples were mixed by vortexing for 30 seconds. […] […]. […] […].

Data set [3] in a line: PK study in rats, IV and PO, plasma by LC-MS/MS. The format is in vivo, Sprague-Dawley rats. On the procedure: as §2, §3
Data set [4] concerns the target T3, NLRP3 inflammasome. Briefly: IL-1β release from J774A.1 cells upon LPS/ATP stimulation (ELISA).
Experimental: Next, test compounds were added for 30 min. ATP (5 mM) was added at the same time when compounds were added to induce NLRP3 inflammasome activation. After 30 min, the supernatants were collected and the level of IL-1β was measured with a mouse IL-1β ELISA kit following the manufacturer's instructions. Primary peritoneal macrophages were similarly treated as described with J774A.1 cell line followed by ELISA analysis for IL-β production.

T3 sequence (Q8R4B8 whole entry): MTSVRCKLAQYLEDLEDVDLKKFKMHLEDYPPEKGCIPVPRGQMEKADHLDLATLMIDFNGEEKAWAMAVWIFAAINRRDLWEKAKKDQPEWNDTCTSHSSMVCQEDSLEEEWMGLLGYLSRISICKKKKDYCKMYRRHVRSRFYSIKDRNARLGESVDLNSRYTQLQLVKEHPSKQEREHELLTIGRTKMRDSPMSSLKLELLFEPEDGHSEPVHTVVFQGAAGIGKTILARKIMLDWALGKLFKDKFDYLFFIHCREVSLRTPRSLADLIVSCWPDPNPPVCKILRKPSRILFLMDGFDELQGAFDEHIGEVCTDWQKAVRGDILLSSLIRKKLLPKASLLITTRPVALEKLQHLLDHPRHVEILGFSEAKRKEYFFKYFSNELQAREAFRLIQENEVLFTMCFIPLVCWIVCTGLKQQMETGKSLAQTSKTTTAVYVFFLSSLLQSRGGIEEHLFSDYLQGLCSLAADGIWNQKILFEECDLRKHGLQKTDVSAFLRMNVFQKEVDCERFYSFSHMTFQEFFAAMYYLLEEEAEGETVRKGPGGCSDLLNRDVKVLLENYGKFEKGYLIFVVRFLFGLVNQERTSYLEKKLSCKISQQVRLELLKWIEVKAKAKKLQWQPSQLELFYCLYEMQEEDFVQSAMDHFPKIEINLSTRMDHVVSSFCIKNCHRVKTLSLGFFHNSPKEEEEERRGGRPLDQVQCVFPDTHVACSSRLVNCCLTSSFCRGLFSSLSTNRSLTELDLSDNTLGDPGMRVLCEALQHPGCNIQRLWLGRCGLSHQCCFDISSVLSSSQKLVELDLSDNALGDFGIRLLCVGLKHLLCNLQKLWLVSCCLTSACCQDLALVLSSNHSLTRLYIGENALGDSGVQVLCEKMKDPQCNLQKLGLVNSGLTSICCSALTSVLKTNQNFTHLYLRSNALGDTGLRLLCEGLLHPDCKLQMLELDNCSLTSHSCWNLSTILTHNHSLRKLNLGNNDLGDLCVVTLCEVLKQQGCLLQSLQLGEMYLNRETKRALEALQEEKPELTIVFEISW

Turning to `C#CCNS(=O)(=O)c1ccc(CCN(Cc2cc(Cl)ccc2OC)C(=O)C=C)cc1` [HL16, N-(5-chloro-2-methoxybenzyl)-N-(4-(N-(prop-2-yn-1-yl)sulfamoyl)phenethyl)acryl-amide], at NLRC4 inflammasome, the “effect on IL-1β production by NLRC4 inflammasome” value is recorded as “significantly inhibited”. The “effect on IL-1β production by AIM2 inflammasome” value at AIM2 inflammasome is listed as “significantly inhibited”. Also, the “EAE induction (clinical score)” value with EAE (2 mg/kg i.p.) and in the data set with EAE (10 mg/kg i.p.) was “substantially blocked induction of EAE” each time. For the same molecule, the “inhibitory activity in mouse peritoneal macrophages” value at NLRP3 inflammasome [1] is recorded as “confirmed”.

`C#CCNS(=O)(=O)c1ccc(CCN(Cc2cc(Cl)ccc2OCCC)C(=O)Cc2ccsc2)cc1` [SZ-N3I-45, N-(5-chloro-2-propoxybenzyl)-N-(4-(N-(prop-2-yn-1-yl)sulfamoyl)phenethyl)-2-(thio-phen-3-yl)acetamide]: on NLRC4 inflammasome, the “effect on IL-1β production by NLRC4 inflammasome” value is “did not significantly interfere”. For the same molecule, at AIM2 inflammasome, the “effect on IL-1β production by AIM2 inflammasome” value is reported as “did not significantly interfere”. Also, the “cytotoxicity on hCMEC/D3 cells” value in the data set on hCMEC/D3 cells was “did not show significant toxic effects”. The plasma concentration in data set [2] (0.5 hours) was determined as 277.33 ± 182.15 ng/mL. In addition, the “brain concentration after approximate conversion” value in data set [2] (4 h) was “around 12 nM”. For the same molecule, in data set [3] (20 mg/kg PO vs IV), the “oral bioavailability (Foral)” value is recorded as 10%. For the same molecule, in data set [3] (IV 20 mg/kg), the “steady-state volume of distribution (Vdss)” value is reported as 8.5 L/kg, the “terminal plasma half-life (t½)” value was found to be 6.6 h and the “total clearance (CLtot)” value is on record as 41 mL/min/kg. In data set [3] (PO 20 mg/kg), this molecule displayed a cmax of 73 ng/mL and a tmax of 12 h.

As for `COc1ccc(CNS(=O)(=O)c2ccc(CCN(Cc3cc(Cl)ccc3OCc3ccccc3)C(=O)Cc3ccccc3)cc2)cc1` [SZ-N3I-28], the pIC50 – broadly, the IC50 on a negative log10 scale, so that one unit is a factor of ten – against NLRP3 inflammasome [4] was 5.00 to 6.00.

`C#CCNS(=O)(=O)c1ccc(CCN(Cc2cc(Cl)ccc2OCCC)C(=O)[C@H](N)c2ccsc2)cc1` [SZ-N3I-84]: the pIC50 at NLRP3 inflammasome [4] was 5.00 to 6.00.

On NLRP3 inflammasome [4], `COc1ccc(Cl)cc1C(=O)NCCc1ccc(S(=O)(=O)NCCOCCOCCCCCCCl)cc1` [SZ-N3I-62] had a pIC50 of 5.00 to 6.00.

For the molecule `COc1ccc(CNS(=O)(=O)c2ccc(CCN(Cc3cc(Cl)ccc3OCC3CC3)C(=O)Cc3ccccc3)cc2)cc1` [SZ-N3I-25], at NLRP3 inflammasome [4], the negative logarithm of the IC50 (pIC50) was 5.00 to 6.00.

At NLRP3 inflammasome [4], `O=C(NCCc1ccc(S(=O)(=O)NCc2ccccc2)cc1)c1cc(Cl)ccc1C(O)c1ccccc1` (stereo not shown) [SZ-N3I-65] had a pIC50 of 5.00 to 6.00.

With `CNS(=O)(=O)c1ccc(CCN(Cc2cc(Cl)ccc2OC)C(=O)Cc2ccccc2)cc1` [SZ-N3I-12], the pIC50 against NLRP3 inflammasome [4] was greater than 6.00.

As for `C#CCNS(=O)(=O)c1ccc(CCN(Cc2cccc3c2OCO3)C(=O)Cc2ccsc2)cc1` [SZ-N3I-88], the negative logarithm of the IC50 (pIC50) against NLRP3 inflammasome [4] is greater than 6.00.

As to `CCCOc1ccc(Cl)cc1CN(CCc1ccc(C(=O)NC)cc1)C(=O)Cc1ccccc1` [SZ-N3I-36], at NLRP3 inflammasome [4], the pIC50 was 5.00 to 6.00.

Regarding `C#CCNS(=O)(=O)c1ccc(CCN(Cc2cc(Cl)ccc2N)C(=O)Cc2ccsc2)cc1` [SZ-N3I-86], on NLRP3 inflammasome [4], the pIC50 is 5.00 to 6.00.

Turning to `O=C(NCCc1ccc(S(=O)(=O)NCc2ccccc2)cc1)c1cc(Cl)ccc1C(=O)c1ccccc1` [SZ-N3I-63], on NLRP3 inflammasome [4], the negative-log IC50 (pIC50) is greater than 6.00.

On NLRP3 inflammasome [4], `C#CCNC(=O)c1ccc(CCN(Cc2cc(Cl)ccc2OCCC)C(=O)Cc2ccsc2)cc1` [SZ-N3I-61] showed a negative-log IC50 (pIC50) greater than 6.00.

For `C#CCNS(=O)(=O)c1ccc(CCN(Cc2cc(Cl)ccc2OCCC)C(=O)[C@@H]2CCCN2)cc1` [SZ-N3I-71], the pIC50 against NLRP3 inflammasome [4] was 5.00 to 6.00.

On NLRP3 inflammasome [4], `CCCOc1ccc(Cl)cc1CN(CCc1ccc(C(=O)OC)cc1)C(=O)Cc1ccsc1` [SZ-N3I-60] had a negative-log IC50 (pIC50) of 5.00 to 6.00.

Regarding `CCCN(CCc1ccc(S(=O)(=O)NC)cc1)Cc1cc(Cl)ccc1OC` [SZ-N3I-20], the pIC50 at NLRP3 inflammasome [4] was 5.00 to 6.00.

On NLRP3 inflammasome [4], `C#CCNS(=O)(=O)c1ccc(CCN(Cc2cc(Cl)ccc2OCCC)C(=O)[C@@H](N)Cc2cccs2)cc1` [SZ-N3I-78] gave a pIC50 greater than 6.00.

On NLRP3 inflammasome [4], `CNS(=O)(=O)c1cc(CCNC(=O)c2cc(Cl)ccc2OC)co1` [SZ-N3I-33] had a pIC50 of 5.00 to 6.00.

For the molecule `CCCCCCCOc1ccc(Cl)cc1CN(CCc1ccc(S(=O)(=O)NCc2ccc(OC)cc2)cc1)C(=O)Cc1ccccc1` [SZ-N3I-29], on NLRP3 inflammasome [4], the pIC50 is less than 4.52.

Molecule `C#CCNS(=O)(=O)c1ccc(CCN(Cc2cc(Cl)ccc2OCCC)C(=O)[C@H]2NCCS2)cc1` [SZ-N3I-75] gave a pIC50 against NLRP3 inflammasome [4] of 5.00 to 6.00.

As to `C=CCOc1ccc(Cl)cc1CN(CCc1ccc(S(=O)(=O)NCc2ccc(OC)cc2)cc1)C(=O)Cc1ccccc1` [SZ-N3I-27], the pIC50 on NLRP3 inflammasome [4] is greater than 6.00.

In turn, `CCCCN(CCCC)C(=O)c1ccc(CCN(Cc2cc(Cl)ccc2OCCC)C(=O)Cc2ccccc2)cc1` [SZ-N3I-38] had a pIC50 against NLRP3 inflammasome [4] greater than 6.00.

On to `C#CCNS(=O)(=O)c1ccc(CCN(Cc2cc(Cl)ccc2OCCO)C(=O)Cc2ccsc2)cc1` [SZ-N3I-74], for which the pIC50 against NLRP3 inflammasome [4] was 5.00 to 6.00.

For `CCOc1ccc(Cl)cc1CN(CCc1ccc(S(=O)(=O)NCc2ccc(OC)cc2)cc1)C(=O)Cc1ccccc1` [SZ-N3I-23], the pIC50 on NLRP3 inflammasome [4] was 5.00 to 6.00.

`O=C(NCCc1ccc(S(=O)(=O)N2CCCC2)cc1)c1cc(Cl)ccc1C(=O)c1ccccc1` [SZ-N3I-64]: the negative logarithm of the IC50 (pIC50) at NLRP3 inflammasome [4] is 5.00 to 6.00.

Regarding `CCCOc1ccc(Cl)cc1CN(CCc1ccc(C(=O)NCc2ccc(OC)cc2)cc1)C(=O)Cc1ccccc1` [SZ-N3I-39], at NLRP3 inflammasome [4], the negative-log IC50 (pIC50) was greater than 6.00.
